“And” between values parts separate entries of the source, which are not always exact repeats. Equal values may be shown once. Marks after values point to notes of the source that are not given here.
System: patients suffering from Alzheimer's disease
Experiment: Clinical trial of dimebon tablets, inventors' scale (E. E. Bukatina et al.; 0 = absence of a symptom, 4 = greatest manifestation)
Format: in vivo, human
Procedure: The test was carried out under the direct supervision by two of the inventors, namely E. E. Bukatina and V. Grigorieva, in 14 patients who agreed to take part in the tests, 13 of whom lived in a boarding house for senile persons and one patient lived with their family.
Alzheimer's disease was diagnosed on the basis of criteria ICD-10 NINCDS ADRDA.
Dimebon in the form of tablets (comprising 10 mg of dimebon, 30 mg of lactose, 5 mg of magnesium stearate was prescribed for oral administration in a dose of 0.02 g three to times a day. The patients living in the boarding house received dimebon for 58 days. A patient (observation 14) who was under outpatient observation continued taking the agent for a month after the completion of the tests.
Before the treatment with dimebon, and at 4 and 8 weeks after treatment the patients were examined according to Hazegawa's scale and the inventors' scale (“Social and Clinical Psychiatry”, 1992, No.4, pp.29–37) which includes the following indexes: (1) orientation in locality, time, immediate surroundings and one's own personality; (2) orientation in space; (3) memory for the past; (4) memory for the present; (5) “life in the past”; (6) (a) articulation, (b) difficulty in finding words, and distortion of words; (c) naming of objects; (d) following instructions; (7) concentration (of attention); (8) an affective sphere; (a) high spirits, (b) low spirits; (9) delirium; (10) hearing hallucinations; (11) visual hallucinations; (12) senile or senile-like confusion (when motion anxiety is accompanied by the revival of the past experience); (13) irritability; (14) anxiety; (15) asthenia; (16) headaches; (17) dizziness; (18) tearfulness; (19) spontaneous activity; (20) elementary self-service; and (21 control of sphincters.
According to the Hazegawa's scale, the 0 score indicates the poorest result; on the contrary, according to the inventors' scale, the 0 score indicates the absence of a symptom 4 score indicates the greatest manifestation thereof. […] Before the therapy was started, the patients had been independently examined by two doctors who used the inventors' scale. The examination during the treatment was carried out by the doctors using both the scales. The evaluation according to all the inventors' scale points during all the tests and their variations during the treatment with dimebon are given in the Appendix.
According to the inventors' scale, the degree of the disturbance if the cognitive functions was determined by a sum of evaluations according to the first 5 scale points reflecting the condition of memory, orientation and relation with the reality. The disturbance of speech was dealt with separately and was determined by a sum of evaluations according to items 6b-6d.
Both absolute evaluations of the signs under investigation (the evaluation prior to treatment is a mean evaluation of the two examinations) and variations in them were analysed in the course of therapy. In doing so, only those changes that were beyond the range of evaluations obtained in two pre-treatment examinations were taken into consideration.
The test results reflected the condition of the patients at the time of the examination. Any changes in the metal state observed in the interval between the tests and disappearing by the moment of examination according to the scale were described in the section “Clinical Observations”.
The statistical data processing was carried out by means of Student's t-test and Fisher's “Fi” criterion.

[1] = score after 4 weeks, per patient, listed as dimebon
[2] = score after 8 weeks, per patient, listed as dimebon

SMILES: Cc1ccc2c(c1)c1c(n2CCc2ccc(C)nc2)CCN(C)C1 [No. 10, 2,8-dimethyl-5-[2-(6-methyl-3-pyridyl)ethyl]-2,3,4,5-tetrahydro-1H-pyrido[4,3-b]indole]
- share of patients with improvement of depression (of 11 patients with depressive symptoms prior to treatment, 8 weeks): 55%
- 2. Orientation in space, 4 weeks [1]: 0 (10×) and 1 and 1.5 (2×) and 0.5
- 4. Memory for the present, 4 weeks [1]: 1.5 and 2 (4×) and 1 (3×) and 3 (5×) and 3.5
- 5. Life in the past, 4 weeks [1]: 1 (2×) and 1.5 (2×) and 0.5 (2×) and 2.5 (3×) and 2 (4×) and 3
- 6b. Difficulty in finding words, 4 weeks [1]: 0 (9×) and 1 (2×) and 1.5 and 0.5 and 2
- 6c. Naming of objects, 4 weeks [1]: 0 (7×) and 1 (4×) and 2 (3×)
- 7. Concentration, 4 weeks [1]: 1.5 (2×) and 0 and 1 (3×) and 3 (4×) and 2 (3×) and 0.5
- 8b. Lower spirits, 4 weeks [1]: 1 (4×) and 0 (7×) and 0.5 (2×) and 2
- 9. Delirium, 4 weeks [1]: 0 (9×) and 1 (2×) and 2.5 and 1.5 and 2
- 13. Irritability, 4 weeks [1]: 0 (12×) and 2 and 1
- 14. Anxiety, 4 weeks [1]: 0 (10×) and 1 (4×)
- 15. Asthenia, 4 weeks [1]: 0 (11×) and 1 (2×) and 0.5
- 16. Headache, 4 weeks [1]: 0.5 and 0 (11×) and 1 and 3
- 17. Dizziness, 4 weeks [1]: 0.5 and 0 (8×) and 1 (2×) and 2 and 2.5 and 3
- 18. Tearfulness, 4 weeks [1]: 1 and 0 (13×)
- 19. Spontaneous activity, 4 weeks [1]: 1.5 and 1 (5×) and 0.5 and 2 (4×) and 0 (2×) and 3
- 20. Elementary self-service, 4 weeks [1]: 0 (13×) and 1
- 6d. Performing instructions, 4 weeks [1]: 1 (4×) and 0 (8×) and 0.5 and 2
- 1. Orientation in locality and time, 8 weeks (score after 8 weeks of treatment, per patient, listed as dimebon): 2 (4×) and 3 (2×) and 1.5 (2×) and 0 and 0.5 (2×) and 1 (2×)
- 18. Tearfulness, 8 weeks (score after 8 weeks, per patient): 0
- 2. Orientation in space, 8 weeks [2]: 0 (11×) and 1.5 and 1
- 4. Memory for the present, 8 weeks [2]: 1 (4×) and 0.5 and 1.5 (2×) and 3 (4×) and 2 (2×) and 2.5
- 5. Life in the past, 8 weeks [2]: 0.5 (5×) and 1 (2×) and 3 (3×) and 1.5 and 2.5 (2×) and 2
- 6b. Difficulty in finding words, 8 weeks [2]: 0 (11×) and 1.5 and 2 (2×)
- 6c. Naming of objects, 8 weeks [2]: 0 (9×) and 1 (2×) and 2 (2×) and 1.5
- 7. Concentration, 8 weeks [2]: 1 (5×) and 0 and 3 and 2 (3×) and 3.5 and 2.5 and 4 and 0.5
- 8b. Lower spirits, 8 weeks [2]: 0.5 (2×) and 0 (7×) and 1 (4×) and 1.5
- 9. Delirium, 8 weeks [2]: 0 (9×) and 1.5 (2×) and 1 (2×) and 2
- 13. Irritability, 8 weeks [2]: 0 (12×) and +1 and 1
- 14. Anxiety, 8 weeks [2]: 0 (11×) and 1 (2×) and 0.5
- 15. Asthenia, 8 weeks [2]: 0 (13×) and 0.5
- 16. Headache, 8 weeks [2]: 0 (8×) and 1 (2×) and 2 and 1.5 and 0.5 and 3
- 17. Dizziness, 8 weeks [2]: 0 (8×) and 1.5 and 3 and 2 and 1 (3×)
- 19. Spontaneous activity, 8 weeks [2]: 1 (7×) and 1.5 and 0 (3×) and 2 (2×) and 4
- 20. Elementary self-service, 8 weeks [2]: 0 (13×) and 2
- 6d. Performing instructions, 8 weeks [2]: 1 (5×) and 2.5 and 0 (8×)
- Cognitive functions (first 5 scale points): improvements, % (slight (by 0.5 score), 4 weeks): 5.7* %
- Cognitive functions (first 5 scale points): improvements, abs. (slight (by 0.5 score), 4 weeks): 4*
- Speech functions (items 6b, c, d): improvements, % (slight (by 0.5 score), 4 weeks): 2.4%
- Speech functions (items 6b, c, d): improvements, abs. (slight (by 0.5 score), 4 weeks): 1
- Cognitive functions (first 5 scale points): improvements, % (slight (by 0.5 score), 8 weeks): 25.7* %
- Cognitive functions (first 5 scale points): improvements, abs. (slight (by 0.5 score), 8 weeks): 18*
- Speech functions (items 6b, c, d): deteriorations, % (slight (by 0.5 score), 8 weeks): 2.4%
- Speech functions (items 6b, c, d): deteriorations, abs. (slight (by 0.5 score), 8 weeks): 1
- Speech functions (items 6b, c, d): improvements, % (slight (by 0.5 score), 8 weeks): 7.14%
- Speech functions (items 6b, c, d): improvements, abs. (slight (by 0.5 score), 8 weeks): 3
- Cognitive functions (first 5 scale points): improvements, % (total, 4 weeks): 11.4%
- Cognitive functions (first 5 scale points): improvements, abs. (total, 4 weeks): 8
- Speech functions (items 6b, c, d): deteriorations, % (total, 4 weeks): 2.4%
- Speech functions (items 6b, c, d): deteriorations, abs. (total, 4 weeks): 1
- Speech functions (items 6b, c, d): improvements, % (total, 4 weeks): 9.5%
- Speech functions (items 6b, c, d): improvements, abs. (total, 4 weeks): 4
- Cognitive functions (first 5 scale points): improvements, % (total, 8 weeks): 34.3%
- Cognitive functions (first 5 scale points): improvements, abs. (total, 8 weeks): 24
- Speech functions (items 6b, c, d): deteriorations, % (total, 8 weeks): 9.6%
- Speech functions (items 6b, c, d): deteriorations, abs. (total, 8 weeks): 4
- Speech functions (items 6b, c, d): improvements, % (total, 8 weeks): 14.3%
- Speech functions (items 6b, c, d): improvements, abs. (total, 8 weeks): 6
- Item 10. hearing hallucinations (whole period of investigations, all patients): Item 10. No hearing hallucinations were observed throught the whole period of investigations.

From US7071206B2, “Agents for treating neurodegenerative disorders” (Medivation, Inc., priority 1995, dated 2006)
